This passage reports Ki and IC50 results from patent publication US20140343001A1, “INDOLE DERIVATIVES INHIBITORS OF ENZYME LACTATE DEHYDROGENASE (LDH)” (Universitá di Pisa, priority 2011, published 2014).

The target of the first experiment is T1, hLDH5 (LDH-A) (Homo sapiens, UniProt P00338).
T1 construct: purchased LEEBIO (USA)
The experiment is described as follows: Enzyme inhibition of human lactate dehydrogenase isoform 5. It counts as biochemical. Particulars: ranges of values; 37° C., pH 7.4; read-out: inhibitory activity against hLDH5 (Ki). On the procedure: The compounds described in the examples were evaluated in enzymatic assays to assess its inhibitory properties against two human isoforms of lactate dehydrogenase, hLDH5 containing solely the subunit LDH-A (LEEBIO—USA), and the hLDH1 containing only the LDH subunits-B (Sigma Aldrich, USA), in order to verify the selectivity of these compounds.
(for Ki measurements). Such assays were conducted in cells containing 200 μL of a solution comprising the reagents dissolved in phosphate buffer (KH2PO4 and K2HPO4) at pH 7.4.
IC50 values were calculated as described below. […] Seven different concentrations (in duplicate for each concentration) of compound were used to generate a concentration-response curve. […] Compound solutions were dispensed in 96-well plates (8 μL), then substrate and cofactor dissolved in buffer (152 μl) and enzyme solution (40 μl) were finally added. Dilution of the enzyme stock solution was made to allow a 10% consumption of the cofactor after 15 min. The eventual background fluorescence of the tested compounds or quenching of the NADH fluorescence by the tested compounds was subtracted. In addition to the compound test wells, each plate contained maximum and minimum controls. Assay plates were incubated at room temperature for 15 min and the final measurements were performed using Victor X3 Microplates reader (PerkinElmer®) at a fluorescence emission wavelength of 460 nm (excitation at 340 nm). IC50 were generated using the curve-fitting tool of GraphPad Prism].
The resulting data of enzymatic kinetic (the constants of Michaelis-Menten) were determined by analysis of non-linear regression.
A word on the Ki: it is a dissociation constant, usually derived from enzyme kinetics or from competition with a known ligand. As to `COC(=O)c1cc2c(F)cc(-c3ccccc3)cc2n1O` [Example 51, methyl 4-fluoro-1-hydroxy-6-phenyl-1H-indole-2-carboxylate], the Ki is 10 to 100 µM. On to `COC(=O)c1cc2c(C(F)(F)F)cc(-c3ccc(OC(F)(F)F)cc3)cc2n1O` [Example 18, methyl 1-hydroxy-4-(trifluoromethyl)-6-(4-(trifluoromethoxy)phenyl)-1H-indole-2-carboxylate], for which the Ki was 1 to 10 µM. `O=C(O)c1cc2c(C(F)(F)F)cc(-c3cccc(Cl)c3Cl)cc2n1O` [Example 37, 6-(2,3-dichlorophenyl)-1-hydroxy-4-(trifluoromethyl)-1H-indole-2-carboxylic acid]: the Ki is 1 to 10 µM. In the case of `O=C(O)c1cc2c(C(F)(F)F)cc(-c3ccc(OC(F)(F)F)cc3)cc2n1O` [Example 24, 1-hydroxy-4-(trifluoromethyl)-6-(4-(trifluoromethoxy)phenyl)-1H-indole-2-carboxylic acid], the Ki was in the range of 0.5 to 5 µM. Same read-out and setting: to `O=C(O)c1cc2c(F)cc(-c3ccc(Cl)cc3Cl)cc2n1O` [Example 54, 6-(2,4-dichlorophenyl)-4-fluoro-1-hydroxy-1H-indole-2-carboxylic acid] belongs 5 to 25 µM.

Still in this experiment, the particulars now being: ranges of values; room temperature, pH 7.4; read-out: inhibitory activity against hLDH5 (IC50).
Usually IC50 stands for the concentration that inhibits the measured activity by half. As for `COc1ccc(COC(=O)c2cc3c(C(F)(F)F)cc(-c4ccc(Cl)cc4Cl)cc3n2O)cc1` [Example 60, 4-methoxybenzyl 6-(2,4-dichlorophenyl)-1-hydroxy-4-(trifluoromethyl)-1H-indole-2-carboxylate], the IC50 lay in the range of 0.01 to 1 µM. As to `CN1CCC(OC(=O)c2cc3c(C(F)(F)F)cc(-c4ccc(Cl)cc4Cl)cc3n2O)CC1` [Example 58, 1-methylpiperidin-4-yl 6-(2,4-dichlorophenyl)-1-hydroxy-4-(trifluoromethyl)-1H-indole-2-carboxylate], the IC50 was over 100 µM.

Regarding `COC(=O)c1cc2c(C(F)(F)F)cc(-c3ccc(Cl)c(Cl)c3)cc2n1O` [Example 21, methyl 6-(3,4-dichlorophenyl)-1-hydroxy-4-(trifluoromethyl)-1H-indole-2-carboxylate], the half-inhibitory concentration (IC50) was over 100 µM. Regarding `CCOC(=O)c1cc2c(C(F)(F)F)cc(-c3ccc(Cl)cc3Cl)cc2n1O[C@@H]1O[C@H](CO)[C@@H](O)[C@H](O)[C@H]1O` [Example 12, ethyl 6-(2,4-dichlorophenyl)-1-(β-D-glucopyranosyl)oxy-4-(trifluoromethyl)-1H-indole-2-carboxylate], the IC50 lay in the range of 50 to 500 µM. Same read-out and setting: next, `O=C(OCc1ccc(C(F)(F)F)cc1)c1cc2c(C(F)(F)F)cc(-c3ccc(Cl)cc3Cl)cc2n1O` [Example 64, 4-(trifluoromethyl)benzyl 6-(2,4-dichlorophenyl)-1-hydroxy-4-(trifluoromethyl)-1H-indole-2-carboxylate]: 0.01 to 1 µM.

Turning to `O=C(OCc1ccc([N+](=O)[O-])cc1)c1cc2c(C(F)(F)F)cc(-c3ccc(Cl)cc3Cl)cc2n1O` [Example 61, 4-nitrobenzyl 6-(2,4-dichlorophenyl)-1-hydroxy-4-(trifluoromethyl)-1H-indole-2-carboxylate], the IC50 was 0.01 to 1 µM. Same read-out and setting: next, `CC(C)OC(=O)c1cc2c(C(F)(F)F)cc(-c3ccc(Cl)cc3Cl)cc2n1O[C@@H]1O[C@H](CO)[C@@H](O)[C@H](O)[C@H]1O` [Example 45, isopropyl 6-(2,4-dichlorophenyl)-1-(β-D-glucopyranosyl)oxy-4-(trifluoromethyl)-1H-indole-2-carboxylate]: over 100 µM; `CC(C)(C)C1CCC(OC(=O)c2cc3c(C(F)(F)F)cc(-c4ccccc4)cc3n2O)CC1` (stereo not drawn) [Example 49, 4-(tert-butyl)cyclohexyl 1-hydroxy-6-phenyl-4-(trifluoromethyl)-1H-indole-2-carboxylate]: 0.01 to 1 µM; `O=C(OCc1ccccc1)c1cc2c(C(F)(F)F)cc(-c3ccc(Cl)cc3Cl)cc2n1O` [Example 55, benzyl 6-(2,4-dichlorophenyl)-1-hydroxy-4-(trifluoromethyl)-1H-indole-2-carboxylate]: 0.01 to 1 µM.

As for `O=C(OCc1ccc(-c2ccccc2)cc1)c1cc2c(C(F)(F)F)cc(-c3ccc(Cl)cc3Cl)cc2n1O` [Example 56, [1,1′-biphenyl]-4-ylmethyl 6-(2,4-dichlorophenyl)-1-hydroxy-4-(trifluoromethyl)-1H-indole-2-carboxylate], the IC50 lay within 0.01 to 1 µM.

For `CCCCOC(=O)c1cc2c(C(F)(F)F)cc(-c3ccc(Cl)cc3Cl)cc2n1O[C@@H]1O[C@H](CO)[C@@H](O)[C@H](O)[C@H]1O` [Example 47, butyl 6-(2,4-dichlorophenyl)-1-(β-D-glucopyranosyl)oxy-4-(trifluoromethyl)-1H-indole-2-carboxylate], the IC50 is over 100 µM.

Consider `O=C(OC1CCN(Cc2ccccc2)CC1)c1cc2c(C(F)(F)F)cc(-c3ccc(Cl)cc3Cl)cc2n1O` [Example 59, 1-benzylpiperidin-4-yl 6-(2,4-dichlorophenyl)-1-hydroxy-4-(trifluoromethyl)-1H-indole-2-carboxylate], for which the IC50 was over 100 µM.

With `COC(=O)c1cc2c(C(F)(F)F)cc(-c3ccccc3)c(-c3ccccc3)c2n1O` [Example 14, methyl 1-hydroxy-6,7-diphenyl-4-(trifluoromethyl)-1H-indole-2-carboxylate], the half-inhibitory concentration (IC50) is 1 to 10 µM. Take `COC(=O)c1cc2c(C(F)(F)F)cc(-c3ccc(Cl)cc3Cl)cc2n1O[C@@H]1O[C@H](COC(C)=O)[C@@H](OC(C)=O)[C@H](OC(C)=O)[C@H]1OC(C)=O` [Example 11, methyl 6-(2,4-dichlorophenyl)-1-(β-d-2,3,4,6-tetra-O-acetylglucopyranosyl)oxy-4-(trifluoromethyl)-1H-indole-2-carboxylate]: the IC50 was over 100 µM. On the same count and under the same terms, to `COC(=O)c1c(C)c2c(C(F)(F)F)cc(-c3ccccc3)cc2n1O` [Example 16, methyl 1-hydroxy-6-phenyl-3-methyl-4-(trifluoromethyl)-1H-indole-2-carboxylate] belongs 1 to 10 µM. `O=C(OCc1ccc(F)cc1)c1cc2c(C(F)(F)F)cc(-c3ccc(Cl)cc3Cl)cc2n1O` [Example 62, 4-fluorobenzyl 6-(2,4-dichlorophenyl)-1-hydroxy-4-(trifluoromethyl)-1H-indole-2-carboxylate]: the 50% inhibitory concentration (IC50) fell in the range of 0.01 to 1 µM.

As to `CCCCOC(=O)c1cc2c(C(F)(F)F)cc(-c3ccc(Cl)cc3Cl)cc2n1O[C@@H]1O[C@H](COC(C)=O)[C@@H](OC(C)=O)[C@H](OC(C)=O)[C@H]1OC(C)=O` [Example 46, butyl 6-(2,4-dichlorophenyl)-1-(β-d-2,3,4,6-tetra-O-acetylglucopyranosyl)oxy-4-(trifluoromethyl)-1H-indole-2-carboxylate], the IC50 was over 100 µM.

Regarding `CC(=O)OC[C@H]1O[C@@H](On2c(C(=O)OC(C)C)cc3c(C(F)(F)F)cc(-c4ccc(Cl)cc4Cl)cc32)[C@H](OC(C)=O)[C@@H](OC(C)=O)[C@@H]1OC(C)=O` [Example 44, isopropyl 6-(2,4-dichlorophenyl)-1-(β-d-2,3,4,6-tetra-O-acetylglucopyranosyl)oxy-4-(trifluoromethyl)-1H-indole-2-carboxylate], the IC50 is over 100 µM. Same read-out and setting: next, `CCOC(=O)c1cc2c(C(F)(F)F)cc(-c3ccc(Cl)cc3Cl)cc2n1O[C@@H]1O[C@H](COC(C)=O)[C@@H](OC(C)=O)[C@H](OC(C)=O)[C@H]1OC(C)=O` [Example 13, ethyl 6-(2,4-dichlorophenyl)-1-(β-d-2,3,4,6-tetra-O-acetylglucopyranosyl)oxy-4-(trifluoromethyl)-1H-indole-2-carboxylate]: over 100 µM.
